Source: PMC8070394, “Determination of Colistin in Contents Derived from Gastrointestinal Tract of Feeding Treated Piglet and Broiler” (Antibiotics, 2021)

Columns and labels:
[1] = Colistin in contents of swine gastrointestinal segments and feces after feeding treatment (UPLC-MS/MS); format: in vivo, piglets (Duroc × Landrace × Large white); conditions: n = 4
Procedure: (§1) Eight weaned piglets (Duroc × Landrace × Large white) 3~4 weeks of age were used in a 14-day feeding trial. First, all piglets were fed with the base diet (Table S1) for an adapting period of 6 days. Subsequently, four piglets fed the base diet were kept as untreated controls, and the other four piglets were fed the base diet, which was supplemented with colistin sulphate at 20 mg/kg of body weight for 14 consecutive days. Thereafter, feces were collected, and the piglets were slaughtered to obtain contents from the swine gastrointestinal segments, including stomach, duodenum, jejunum and cecum. The sixteen cobb broilers 1–3 days in age were selected and fed with a drug-free balanced diet (Table S2) during the 14-day adaption period and the subsequent treatment period. Then, eight broilers were kept as untreated controls, and the other eight broilers were fed with colistin at 20 mg/kg of body weight for 14 consecutive days. At the end of the trial, treated and untreated animals were sacrificed, and the contents derived from the gizzard, proventriculus, duodenum, jejunum, ileum and cecum were recovered. All samples were stored at −80 °C before being analyzed.
(§2) The extraction procedure was based on the methods developed by Fu with some modifications. Briefly, 2 g of samples was lyophilized to dryness and extracted twice with 10 mL of 10% trichloroacetic acid: acetonitrile (40:60, v/v), and the combined extraction solution was adjusted to pH 9.0. Thereafter, the extraction solution was applied to Oasis WCX SPE cartridges which were prewashed with 3 mL of methanol and 3 mL of water. The cartridges were then rinsed with 3 mL of water, 3 mL of methanol and 3 mL of 5% formic acid in water. Eventually, the colistin was eluted with 5 mL of 20% formic acid in methanol. The eluent was evaporated to dryness by vacuum centrifugation at 50 °C and resuspended in 500 μL of deionized water prior to measurement using an UPLC–MS/MS system.
(§3) Chromatography of colistin was conducted with an UltiMate 3000 UPLC system (Thermo Fisher, San Jose, CA, USA) equipped with an Acquity UPLC BEH C18 column (2.1 mm × 100 mm; 1.7 µm particle size; Waters, Milford, MA, USA). The mobile phase A was 0.2% formic acid, 5% acetonitrile in H2O; B was 100% acetonitrile. The colistin was resolved with a linear gradient starting from 95% A solvent to 70% B solvent over 5 min and then to 5% A at 10 min, at a flow rate of 200 µL/min.
(§4) MS spectra were acquired at positive ionization mode with a hybrid quadrupole-obitrap mass spectrometer (Q Exactive, Thermo Fisher, San Jose, CA, USA). The sheath gas flow rate was 25 mL/min; the auxiliary gas flow rate was 15 mL/min; the spray voltage was 3.2 kV; and the temperature of the capillary tube was set to 320 °C. One microscan was used for data acquisition. The resolution settings were full MS target 70,000 and MS/MS target 17,500; normalized CE 20% and 22% were employed for colistin A and colistin B, respectively. Data manipulations were employed using Xcalibur version 4.0 software. Quantitative analyses were conducted in the selective reaction monitoring (SRM) scan mode. The two most abundant fragment ions were selected from each analyte for analysis (Figure S1). The transitions monitored and approximate chromatographic retention times (tR) were as follows: colistin A ([M + 3H]^3+), m/z 390.60 > 101.0696, 241.1860, tR = 7.30 min; colistin B ([M + 3H]^3+), m/z 385.90 > 101.0696, 227.1710, tR = 6.85 min. The mass tolerance was set to 5 ppm for fragment ions.
(§5) Colistin-treated samples and controls were subject to analysis using the proposed method, including stomach, duodenum, jejunum and cecum content samples and feces samples recovered from 4 treated and 4 untreated piglets; gizzard, proventriculus, duodenum, jejunum, ileum and cecum content samples and feces samples from 8 treated and 8 control cobb broilers. […]

[2] = pigs, single oral administration, cited from earlier work
Text: Nutrients and drugs are known to be mainly absorbed in the small intestine of animals and humans after oral administration. The dosing regimen of colistin in clinical use depends upon the pharmacokinetics and pharmacodynamics of colistin in humans. Meanwhile, the absorption of oral drugs in the digestive tract is crucial for the dosing regimen as well. Unlike for human medicine, a few studies have been conducted in animals to evaluate the pharmacokinetics and pharmacodynamics of colistin following oral administration. One study has measured colistin in the whole intestin ...

[3] = Colistin in contents of broiler gastrointestinal segments and feces after feeding treatment (UPLC-MS/MS); format: in vivo, cobb broilers; conditions: broilers fed colistin 20 mg/kg body weight for 14 days
Procedure: as §1, §2, §3, §4, §5

Substance: Colistin
- average amount of colistin in content recovered from the cecum, based on dried weight ([1]; piglets fed colistin sulphate 20 mg/kg body weight for 14 days, cecum content, dried weight): ~ 3300 ng/g
- concentration of colistin in content from the cecum ([1]; piglets fed colistin sulphate 20 mg/kg body weight for 14 days, cecum content, wet weight, UPLC-MS/MS, mean ± standard deviation): 398.3 ± 161.2 ng/g
- average concentration of colistin in samples from the duodenum ([1]; piglets fed colistin sulphate 20 mg/kg body weight for 14 days, duodenum content, UPLC-MS/MS): ~ 30 ng/g
- average amount of colistin in feces, based on dried weight ([1]; piglets fed colistin sulphate 20 mg/kg body weight for 14 days, feces, dried weight): ~ 3300 ng/g
- average concentration of colistin in samples from the jejunum ([1]; piglets fed colistin sulphate 20 mg/kg body weight for 14 days, jejunum content, UPLC-MS/MS): ~ 30 ng/g
- average concentration of colistin in feces samples ([1]; piglets fed colistin sulphate 20 mg/kg body weight in diet for 14 consecutive days, feces, wet weight, UPLC-MS/MS, mean): approximately 1248.3 ng/g
- peak concentration of colistin in samples from the duodenum to ileum, highest level ([2]; HPLC-Fluorescence after derivatization): ~ 90,000 ng/g
- colistin in samples from duodenum to ileum after 4 h ([2]; after 4 h, HPLC-Fluorescence): no colistin was detected
- decrease of the amount of colistin from the cecum to feces [3]: at least 5 fold
- estimate of colistin in samples from the cecum, regardless of the moisture ([3]; cecum content, dried weight, mean ± standard deviation, n = 8): 15766.0 ± 9249.2 ng/g
- average concentration of colistin, cecum ([3]; cecum content, wet weight, mean, n = 8): 4882.9 ng/g
- average concentration of colistin, duodenum ([3]; duodenum content, wet weight, mean, n = 8): 383.7 ng/g
- estimate of colistin in samples from feces, regardless of the moisture ([3]; feces, dried weight, mean ± standard deviation, n = 8): 823.4 ± 616.4 ng/g
- average concentration of colistin in feces samples ([3]; feces, wet weight, mean, n = 8): 147.7 ng/g
- average concentration of colistin, gizzard ([3]; gizzard content, wet weight, mean, n = 8): 1145.7 ng/g
- average concentration of colistin, ileum ([3]; ileum content, wet weight, mean, n = 8): 2056.1 ng/g
- average concentration of colistin, jejunum ([3]; jejunum content, wet weight, mean, n = 8): 1572.3 ng/g
- average concentration of colistin, proventriculus ([3]; proventriculus content, wet weight, mean, n = 8): 448.3 ng/g
